{
  "source": "ChEMBL document CHEMBL1141767",
  "about": "“Lignans from bark of Larix olgensis var. koreana” (J Nat Prod, 2005)",
  "format_in_all_cases": "functional, cell-based",
  "key": {"K562": {"test_system": "K562", "assay": "Cytotoxicity against human K562 cells after 72 hrs by MTT assay", "settings": "K562, 72 h"}, "[1]": {"assay": "Cytotoxicity against human PC3M cells after 72 hrs by MTT assay", "settings": "PC-3M"}, "HCT-8": {"test_system": "HCT-8", "assay": "Cytotoxicity against human HCT8 cells after 72 hrs by MTT assay", "settings": "HCT-8, 72 h"}, "A549": {"test_system": "A549", "assay": "Cytotoxicity against human A549 cells after 72 hrs by MTT assay", "settings": "A549, 72 h"}, "[2]": {"assay": "Cytotoxicity against human SGH44 cells after 72 hrs by MTT assay", "settings": "SGH44, 72 h"}},
  "data": [
    {"smiles": "COc1cc(C[C@@H]2CO[C@@H](c3ccc(O)c(OC)c3)[C@@H]2COC(=O)/C=C/c2ccc(O)cc2)ccc1O", "values": [
      {"measurement": "IC50", "setting": "K562", "value": 2.9, "unit": "µg/mL"},
      {"measurement": "IC50", "setting": "[1]", "value": 28, "unit": "µg/mL"},
      {"measurement": "IC50", "setting": "HCT-8", "value": 32.9, "unit": "µg/mL"},
      {"measurement": "IC50", "setting": "A549", "value": 33.8, "unit": "µg/mL"},
      {"measurement": "IC50", "setting": "[2]", "value": 21.4, "unit": "µg/mL"}
    ]}
  ]
}
